Laboratory results as given in patent EP4194000A1, “CISTUS MONSPELIENSIS EXTRACT AND COMPOSITIONS COMPRISING SAME FOR SKIN SOOTHING” (Pierre Fabre Dermo-Cosmétique, priority 2021, dated 2023).
Ends that are not written are not given here.

Key:
Assay type in all cases: cell-based, humains
[1] = molecular target: T1, PAR-2 (Homo sapiens, UniProt P55085); experiment: Aequorin test, agonist activity on recombinant PAR-2; details: reference agonist for PAR-2; read-out: CE50 (the source's name)
T1 construct: expressed in transfected cells; host or cells: CHO-K1 mt aequorin (parental line named; inferred to be the host of the recombinant cells)
T1 sequence (P55085 26-397): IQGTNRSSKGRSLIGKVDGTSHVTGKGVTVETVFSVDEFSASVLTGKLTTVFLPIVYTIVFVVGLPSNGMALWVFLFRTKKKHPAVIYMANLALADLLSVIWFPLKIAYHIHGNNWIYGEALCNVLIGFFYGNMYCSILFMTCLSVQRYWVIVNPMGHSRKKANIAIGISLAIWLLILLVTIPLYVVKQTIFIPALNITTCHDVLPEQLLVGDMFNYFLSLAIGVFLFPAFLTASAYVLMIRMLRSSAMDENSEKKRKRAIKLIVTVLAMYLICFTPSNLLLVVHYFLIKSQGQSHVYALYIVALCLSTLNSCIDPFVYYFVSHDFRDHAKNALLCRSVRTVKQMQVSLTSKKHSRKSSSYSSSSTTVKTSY
From the text: Les inventeurs ont évalué les effets d'un extrait de Cistus monspeliensis sur deux cibles étroitement reliées au prurit, PAR-2 et MRGPRX2.
Les PAR-2 sont des récepteurs couplés aux protéines G. PAR-2 module les réponses inflammatoires, joue un rôle dans l'obésité, le métabolisme et les cancers. PAR-2 agit comme un senseur pour des enzymes protéolytiques générées pendant l'infection. PAR-2 serait retrouvé dans les kératinocytes épidermiques au niveau de la couche stratum granulosum. Des PAR-2 fonctionnels sont également exprimés dans plusieurs types de cellules immunitaires, telles que les éosinophiles, les neutrophiles, les monocytes, les macrophages, les cellules dendritiques, les mastocytes et les cellules T. Le PAR-2 est activé par clivage protéolytique par la tryptase qui est la protéase principale des cellules mastocytaires et la kallikréine qui est impliquée dans des processus inflammatoires et d'homéostasie épidermique. De plus, le clivage protéolytique de PAR-2 induit une signalisation calcique s'il est exprimé dans les neurones participant à la voie afférente. L'activation de MRGPRX2 ([…] G-Protein coupled Receptor) entraine une dégranulation des cellules mastocytaires avec par la suite des réactions pseudo-allergiques. […]

[2] = test system: substance P; experiment: Substance P release by sensory neurons derived from human pluripotent stem cells, stimulated with veratridine (ELISA)
From the text: Le but de cette étude est d'évaluer les propriétés modulatrices d'un extrait de Cistus monspeliensis dans l'inflammation neurogène cutanée.
Pour se faire, les inventeurs ont développé une approche expérimentale in vitro. Un modèle original de neurones sensoriels humains a été développé après une reprogrammation cellulaire de cellules souches pluripotentes humaines. Ce modèle permet d'étudier les propriétés inhibitrices de la libération de la substance P par les composés à tester, étudié après la stimulation. Ce neuropeptide, la substance P, étant le principal neuromédiateur impliqué dans les voies de la sensibilisation dans l'inflammation neurogène, la douleur et le prurit.
L'étape initiale est la reprogrammation de cellules souches pluripotentes humaines par l'utilisation successive de différents cocktails de facteurs de croissance.
Les caractérisations phénotypiques et morphologiques ont permis de vérifier le pattern des neurones sensoriels avec notamment l'expression des récepteurs spécifiques tels que TrKA, 5HT-2, P2RX3 ou des canaux tels que TRPV1, Nav1.7, Nav1.8, TRPM8 avec une colocalisation avec des marqueurs neuronaux (Tuj1, Brn3A). Ces caractérisations permettent d'établir une durée de reprogrammation pour atteindre un pattern optimal qui est entre J40 et J47 après le début des traitements avec le cocktail des facteurs de croissance.
L'essai est réalisé sur le modèle de neurones sensoriels en culture dans un mélange de milieu (RPMI/N2/B27/Glutamax) en absence (conditions contrôle) ou en présence (groupes traités) des produits à tester. Ces deux conditions sont testées en présence de Vératridine ou en son absence. […] Les niveaux du neuropeptide qu'est la substance P sont quantifiés dix minutes après l'ajout de Veratridine. […]
La substance P libérée est mesurée dans les milieux d'incubation du groupe non traité (contrôle) et des groupes traités après ou non la stimulation de Vératridine. Elle est quantifiée par ELISA selon les instructions du fournisseur. […]

[3] = test system: IL-17; experiment: IL-17 release by isolated, amplified Th17 lymphocytes stimulated with anti-CD3/anti-CD28 beads (ELISA)
From the text: (§1) Le but de cette étude est d'évaluer l'activité potentielle d'un extrait de Cistus monspeliensis selon l'invention pour moduler la production de cytokines impliquées dans le psoriasis et la dermatite atopique. Pour se faire, des lymphocytes Th17 isolés et amplifiés à partir du sang circulant de donneurs sont utilisés comme modèle in vitro d'immunopathogénèse du psoriasis. […]
(§2) Les lymphocytes T sont triés à partir de cellules sanguines récupérées de poches de sang fournies par l'Etablissement Français du sang, pour obtenir le phénotype suivant : CD4+ CD45RA- CXCR3- CCR6+. Le nombre de lymphocytes Th17 ainsi obtenu est augmenté par une mise en culture de ces cellules en présence d'un mélange de cytokines (IL-2, anti-TNFα et anti-INFγ) pendant deux semaines.
(§3) Le test est réalisé sur des lymphocytes Th17 humains isolés et amplifiés en absence (conditions contrôle) ou en présence (traité) des composés à tester et sont stimulés ou non par les facteurs de stimulation anti-CD3/anti-CD28.
(§4) Les teneurs des cytokines pro-inflammatoires de Th17 (IL-17 et IL-22) sont quantifiées 24h après la stimulation.
(§5) Les lymphocytes sont traités avec les composés à tester 30 minutes avant la stimulation et pendant 24 heures.
(§6) La Nicardipine, bloqueur des canaux calciques non-sélectifs a été testée (10 µg/ml), solubilisée également dans le DMSO, est utilisée comme contrôle positif. […]

[4] = test system: IL-22; experiment: IL-22 release by isolated, amplified Th17 lymphocytes stimulated with anti-CD3/anti-CD28 beads (ELISA)
From the text: as §1, §2, §3, §4, §5, §6

[5] = 10µg/ml, Th17 stimulated anti-CD3/anti-CD28, 24h

**Q.** With SLIGRL-NH2 [SLIGRL-NH2] as the compound, how does the EC50 [1] read?
**A.** The EC50 was 524 nM.

**Q.** `CCN(CC)CC(=O)Nc1c(C)cccc1C` [Lidocaïne, lidocaïne] was tested. Which “substance P, Données brutes Moyenne” value ([2]; 100µM, under Vératridine 3µM stimulation) did it give?
**A.** The value was 34,76 pg/ml.

**Q.** What about the “libération de substance P (result in words)” value ([2]; 100µM, under Vératridine stimulation) of the same compound?
**A.** Its value is “réduit significativement la libération de substance P”.

**Q.** `COc1ccc(C(=O)O[C@H]2CC[C@@]3(C)[C@@H]4CC[C@H]5[C@]6(O)C[C@H](O)[C@@]7(O)[C@@H](CN8C[C@@H](C)CC[C@H]8[C@@]7(C)O)[C@]6(O)C[C@@]53O[C@]24O)cc1OC` [Vératridine] was tested. Which “substance P, Données brutes Moyenne” value ([2]; Vératridine 3µM alone (stimulus), 10 minutes) did it give?
**A.** The value was 96,26 pg/ml.

**Q.** How did the “IL-17 (moyenne)” value [3, 5] turn out when `COC(=O)C1=C(C)NC(C)=C(C(=O)OCCN(C)Cc2ccccc2)C1c1cccc([N+](=O)[O-])c1` (centres unmarked) [Nicardipine] was run?
**A.** Its value is 721 pg/mL.

**Q.** And the inhibition at 10 µg/mL ([3]; Lymphocyte)?
**A.** The inhibition at 10 µg/mL was 43%.

**Q.** What about the “IL-22 (moyenne)” value [4, 5] of the same compound?
**A.** Its value is 440 pg/mL.

**Q.** What about the inhibition at 10 µg/mL ([4]; Lymphocyte) of the same compound?
**A.** Its inhibition at 10 µg/mL is 37%.
